Data: patent publication US7989438B2, “Therapeutic compounds” (Istituto di Ricerche di Biologia Molecolare P. Angeletti SpA, priority 2007, dated 2011)
Like-named read-outs stand apart in the source and are kept apart here.

Tested on: HCV subgenomic replication
Assay: Cell based HCV replication assay (subgenomic replicon in Huh-7 cells, NS3 Cell-ELISA)
Settings: activity ranges
From the text: Cell clones that stably maintain subgenomic HCV replicon were obtained by transfecting Huh-7 cells with an RNA replicon identical to I377neo/NS3-3′/wt described by Lohmann et al. (1999) (EMBL-genbank No. AJ242652), followed by selection with neomycin sulfate (G418). Viral replication was monitored by measuring the expression of the NS3 protein by an ELISA assay performed directly on cells grown in 96 wells microtiter plates (Cell-ELISA) using the anti-NS3 monoclonal antibody 10E5/24 (as described in published International application WO 02/59321). Cells were seeded into 96 well plates at a density of 10^4 cells per well in a final volume of 0.1 ml of DMEM/10% FCS. Two hours after plating, 50 μl of DMEM/10% FCS containing a 3× concentration of inhibitor were added, cells were incubated for 96 hours and then fixed for 10 minutes with ice-cold isopropanol. Each condition was tested in duplicate and average absorbance values were used for calculations. The cells were washed twice with PBS, blocked with 5% non-fat dry milk in PBS+0.1% Triton X100+0.02% SDS (PBSTS) and then incubated o/n at 4° C. with the 10E5/24 mab diluted in Milk/PBSTS. After washing 5 times with PBSTS, the cells were incubated for 3 hours at room temperature with Fc specific anti-mouse IgG conjugated to alkaline phosphatase (Sigma), diluted in Milk/PBSTS. After washing again as above, the reaction was developed with p-Nitrophenyl phosphate disodium substrate (Sigma) and the absorbance at 405/620 nm read at intervals. For calculations, we used data sets where samples incubated without inhibitors had absorbance values comprised between 1 and 1.5. The inhibitor concentration that reduced by 50% the expression of NS3 (IC50) was calculated by fitting the data to the Hill equation, Fraction inhibition=1−(Ai−b)/(A0−b)=[I]^n/([I]^n+[…]) where: • Ai=absorbance value of HBI10 cells supplemented with the indicated inhibitor concentration. • A0=absorbance value of HBI10 cells incubated without inhibitor. • b=absorbance value of Huh-7 cells plated at the same density in the same microtiter plates and incubated without inhibitor. • n=Hill coefficient.

[1] = Table A, Huh-7 replicon cells, 96 hours, read-out: IC50 (nM), Inhibition of HCV subgenomic replication
[2] = Hepatitis C virus, Huh-7, Table 5, various macrocycles, read-out: IC50* (nM), Inhibition of HCV subgenomic replication

CN1CCCN(CCN2CCCC2)S(=O)(=O)NC(=O)c2ccc3c(C4CCCCC4)c4n(c3c2)CC(CC1)COc1ccccc1-4 (single isomer, unassigned) [Example 505, (7R) or (7S)-14-cyclohexyl-22-methyl-18-(2-pyrrolidin-1-ylethyl)-7,8-dihydro-6H-7,11-(ethanoiminopropanoiminothioiminomethano)indolo[1,2-e][1,5]benzoxazocin-15-one 17,17-dioxide]
IC50 (Table 5, various macrocycles, read-out: IC50* (nM), Inhibition of HCV subgenomic replication): 25 to 150 nM

CCN1CCNC2COc3cc(F)ccc3-c3c(C4CCCCC4)c4ccc(cc4n3C2)C(=O)NS(=O)(=O)N(C)CC1 [Example 204, (7R)-14-cyclohexyl-21-ethyl-3-fluoro-18-methyl-7,8-dihydro-6H-7,11-(epiminoethanoiminoethanoiminothioiminomethano)-indolo[1,2-e][1,5]benzoxazocin-15-one 17,17-dioxide]
IC50 (Table 2, various macrocycles, read-out: IC50* (nM), Inhibition of HCV subgenomic replication): 25 to 150 nM

O=C1NS(=O)(=O)N2CCN(CCCC3COc4ccccc4-c4c(C5CCCCC5)c5ccc1cc5n4C3)CC2 (stereo not drawn) [Compound A34, 30-cyclohexyl-18-oxa-2-thia-1,3,10,24-tetraazahexacyclo[22.2.2.1^5,9.1^8,11.1^10,20.0^12,17]hentriaconta-5(31),6,8,11(30),12,14,16-heptaen-4-one 2,2-dioxide]
IC50 (Hepatitis C virus, Table A, Huh-7 replicon cells, 96 hours, read-out: IC50 (nM), Inhibition of HCV subgenomic replication): 25 to 150 nM

CN1CCCN(C)S(=O)(=O)NC(=O)c2ccc3c(C4CCCCC4)c4n(c3c2)CC(CC1)COc1ccccc1-4 (single isomer, unassigned; (+)) [Compound A13, (+)-14-cyclohexyl-18,22-dimethyl-7,8-dihydro-6H-7,11-(ethanoiminopropanoiminothioiminomethano)indolo[1,2-e][1,5]benzoxazocin-15-one 17,17-dioxide]
IC50 [1]: 25 to 150 nM

CN1CCC2COc3ccccc3-c3c([C@H]4CCCC[C@@H]4F)c4ccc(cc4n3C2)C(=O)NS(=O)(=O)N2CCC1CC2 (single isomer, unassigned) [Example 502, 30-[(1R,2S) or (1S,2R)-2-fluorocyclohexyl]-23-methyl-18-oxa-2-thia-1,3,10,23-tetraazahexacyclo[22.2.2.1^5,9.1^8,11.1^10,20.0^12,17]hentriaconta-5(31),6,8,11(30),12,14,16-heptaen-4-one 2,2-dioxide]
IC50 [2]: 25 to 150 nM

COc1ccc2c(c1)OCC1CCCN(C)CCN(C)S(=O)(=O)NC(=O)c3ccc4c(C5CCCCC5)c-2n(c4c3)C1 (single isomer, unassigned; (-)) [Compound A37, (−)-14-cyclohexyl-3-methoxy-18,21-dimethyl-7,8-dihydro-6H-7,11-(propanoiminoethanoiminothioiminomethano)indolo[1,2-e][1,5]benzoxazocin-15-one 17,17-dioxide]
IC50 [1]: < 25 nM

COc1ccc2c(c1)OCC1CCCN(C)CCN(C)S(=O)(=O)NC(=O)c3ccc4c(C5CCCCC5)c-2n(c4c3)C1 (single isomer, unassigned; (+)) [Compound A36, (+)-14-cyclohexyl-3-methoxy-18,21-dimethyl-7,8-dihydro-6H-7,11-(propanoiminoethanoiminothioiminomethano)indolo[1,2-e][1,5]benzoxazocin-15-one 17,17-dioxide]
IC50 [1]: 25 to 150 nM

CC(C)N1CCN(C)C2COc3c(F)cccc3-c3c(C4CCCCC4)c4ccc(cc4n3C2)C(=O)NS(=O)(=O)N(C)CC1 [Example 405, (7R)-14-cyclohexyl-4-fluoro-21-isopropyl-18,24-dimethyl-7,8-dihydro-6H-7,11-(epiminoethanoiminoethanoiminothioiminomethano)-indolo[1,2-e][1,5]benzoxazocin-15-one 17,17-dioxide]
IC50 (Table 4, various macrocycles, read-out: IC50* (nM), Inhibition of HCV subgenomic replication): < 25 nM

CN1C2CCN(CCC3COc4ccccc4-c4c(C5CCCCC5)c5ccc(cc5n4C3)C(=O)NS1(=O)=O)CC2 (stereo not drawn) [Example 504, 30-cyclohexyl-23-methyl-6-oxa-22-thia-1,14,21,23-tetraazahexacyclo[22.2.2.1^4,14.1^13,16.1^15,19.0^7,12]hentriaconta-7,9,11,13(30),15(29),16,18-heptaen-20-one 22,22-dioxide]
IC50 [2]: 25 to 150 nM
